Data: ChEMBL document CHEMBL3044749, “Synthesis, characterization, in vitro hydrolysis and pharmacodynamic profiles of potential novel mutual prodrugs of N-(2,3-xylyl anthranilic acid)” (Med Chem Res, 2013)

Assays:
[1] = Half life in simulated intestinal fluid at 37 degC at pH 7.4 by UV spectrophotometer analysis; assay type: ADME
[2] = Half life in simulated gastrointestinal fluid at 37 degC at pH 1.2 by UV spectrophotometer analysis; assay type: ADME
Mus musculus [3] = test: Analgesic activity in Swiss Mus musculus (mouse) assessed as inhibition of acetic acid-induced abdominal writhing at 27.65 mg/kg, po administered 1 hr prior to acetic acid injection measured for 10 min; assay type: functional; conditions: Abdomen
Rattus norvegicus [4] = test: Anti-inflammatory activity in Wistar albino Rattus norvegicus (rat) assessed as inhibition of carrageenan-induced paw edema at 27.65 mg/kg, po administered 1 hr prior to carrageenan injection measured after 8 hr by mercury plethysmometer (reference value: 0%); assay type: functional
Rattus norvegicus [5] = test: Anti-inflammatory activity in Wistar albino Rattus norvegicus (rat) assessed as inhibition of carrageenan-induced paw edema at 27.65 mg/kg, po administered 1 hr prior to carrageenan injection measured after 6 hr by mercury plethysmometer (reference value: 0%); assay type: functional
Rattus norvegicus [6] = test: Anti-inflammatory activity in Wistar albino Rattus norvegicus (rat) assessed as inhibition of carrageenan-induced paw edema at 27.65 mg/kg, po administered 1 hr prior to carrageenan injection measured after 4 hr by mercury plethysmometer (reference value: 0%); assay type: functional
Rattus norvegicus [7] = test: Anti-inflammatory activity in Wistar albino Rattus norvegicus (rat) assessed as inhibition of carrageenan-induced paw edema at 27.65 mg/kg, po administered 1 hr prior to carrageenan injection measured after 3 hr by mercury plethysmometer (reference value: 0%); assay type: functional
Rattus norvegicus [8] = test: Anti-inflammatory activity in Wistar albino Rattus norvegicus (rat) assessed as inhibition of carrageenan-induced paw edema at 27.65 mg/kg, po administered 1 hr prior to carrageenan injection measured after 2 hr by mercury plethysmometer (reference value: 0%); assay type: functional
Rattus norvegicus [9] = test: Anti-inflammatory activity in Wistar albino Rattus norvegicus (rat) assessed as inhibition of carrageenan-induced paw edema at 27.65 mg/kg, po administered 1 hr prior to carrageenan injection measured after 1 hr by mercury plethysmometer (reference value: 0%); assay type: functional
[10] = Stability of the compound assessed as prodrug hydrolysis in non-enzymatic simulated gastric fluid at 37 degC at pH 1.2 measured for 2 hr by UV spectrophotometer analysis; assay type: physicochemical; conditions: simulated gi fluid, pH 1.2, 2 h
Rattus norvegicus [11] = test: Gastrointestinal toxicity in Wistar albino Rattus norvegicus (rat) assessed as ulcerogenicity index at 27.65 mg/kg, po administered for 7 days measured on day 8 (reference value: 0 no unit); assay type: organism-based; parameters: dose 27.65 mg/kg, route oral; conditions: in vivo, 168 h
Rattus norvegicus [12] = test: Anti-inflammatory activity in Wistar albino Rattus norvegicus (rat) assessed as inhibition of carrageenan-induced paw edema at 24.65 mg/kg, po administered 1 hr prior to carrageenan injection measured after 1 hr by mercury plethysmometer (reference value: 0%); assay type: functional
Rattus norvegicus [13] = test: Anti-inflammatory activity in Wistar albino Rattus norvegicus (rat) assessed as inhibition of carrageenan-induced paw edema at 24.65 mg/kg, po administered 1 hr prior to carrageenan injection measured after 3 hr by mercury plethysmometer (reference value: 0%); assay type: functional
Rattus norvegicus [14] = test: Anti-inflammatory activity in Wistar albino Rattus norvegicus (rat) assessed as inhibition of carrageenan-induced paw edema at 24.65 mg/kg, po administered 1 hr prior to carrageenan injection measured after 2 hr by mercury plethysmometer (reference value: 0%); assay type: functional
Mus musculus [15] = test: Analgesic activity in Swiss Mus musculus (mouse) assessed as inhibition of acetic acid-induced abdominal writhing at 24.65 mg/kg, po administered 1 hr prior to acetic acid injection measured for 10 min; assay type: functional; conditions: Abdomen
Rattus norvegicus [16] = test: Anti-inflammatory activity in Wistar albino Rattus norvegicus (rat) assessed as inhibition of carrageenan-induced paw edema at 24.65 mg/kg, po administered 1 hr prior to carrageenan injection measured after 8 hr by mercury plethysmometer (reference value: 0%); assay type: functional
Rattus norvegicus [17] = test: Anti-inflammatory activity in Wistar albino Rattus norvegicus (rat) assessed as inhibition of carrageenan-induced paw edema at 24.65 mg/kg, po administered 1 hr prior to carrageenan injection measured after 6 hr by mercury plethysmometer (reference value: 0%); assay type: functional
Rattus norvegicus [18] = test: Anti-inflammatory activity in Wistar albino Rattus norvegicus (rat) assessed as inhibition of carrageenan-induced paw edema at 24.65 mg/kg, po administered 1 hr prior to carrageenan injection measured after 4 hr by mercury plethysmometer (reference value: 0%); assay type: functional
Rattus norvegicus [19] = test: Gastrointestinal toxicity in Wistar albino Rattus norvegicus (rat) assessed as ulcerogenicity index at 24.65 mg/kg, po administered for 7 days measured on day 8 (reference value: 0 no unit); assay type: organism-based; parameters: dose 24.65 mg/kg, route oral; conditions: in vivo, 168 h
Rattus norvegicus [20] = test: Anti-inflammatory activity in Wistar albino Rattus norvegicus (rat) assessed as inhibition of carrageenan-induced paw edema at 23 mg/kg, po administered 1 hr prior to carrageenan injection measured after 8 hr by mercury plethysmometer (reference value: 0%); assay type: functional
Rattus norvegicus [21] = test: Anti-inflammatory activity in Wistar albino Rattus norvegicus (rat) assessed as inhibition of carrageenan-induced paw edema at 23 mg/kg, po administered 1 hr prior to carrageenan injection measured after 6 hr by mercury plethysmometer (reference value: 0%); assay type: functional
Rattus norvegicus [22] = test: Anti-inflammatory activity in Wistar albino Rattus norvegicus (rat) assessed as inhibition of carrageenan-induced paw edema at 23 mg/kg, po administered 1 hr prior to carrageenan injection measured after 4 hr by mercury plethysmometer (reference value: 0%); assay type: functional
Rattus norvegicus [23] = test: Anti-inflammatory activity in Wistar albino Rattus norvegicus (rat) assessed as inhibition of carrageenan-induced paw edema at 23 mg/kg, po administered 1 hr prior to carrageenan injection measured after 3 hr by mercury plethysmometer (reference value: 0%); assay type: functional
Rattus norvegicus [24] = test: Anti-inflammatory activity in Wistar albino Rattus norvegicus (rat) assessed as inhibition of carrageenan-induced paw edema at 23 mg/kg, po administered 1 hr prior to carrageenan injection measured after 2 hr by mercury plethysmometer (reference value: 0%); assay type: functional
Rattus norvegicus [25] = test: Anti-inflammatory activity in Wistar albino Rattus norvegicus (rat) assessed as inhibition of carrageenan-induced paw edema at 23 mg/kg, po administered 1 hr prior to carrageenan injection measured after 1 hr by mercury plethysmometer (reference value: 0%); assay type: functional
Mus musculus [26] = test: Analgesic activity in Swiss Mus musculus (mouse) assessed as inhibition of acetic acid-induced abdominal writhing at 23 mg/kg, po administered 1 hr prior to acetic acid injection measured for 10 min; assay type: functional; conditions: Abdomen
Rattus norvegicus [27] = test: Gastrointestinal toxicity in Wistar albino Rattus norvegicus (rat) assessed as ulcerogenicity index at 23 mg/kg, po administered for 7 days measured on day 8 (reference value: 0 no unit); assay type: organism-based; parameters: dose 23 mg/kg, route oral; conditions: in vivo, 168 h
Rattus norvegicus [28] = test: Anti-inflammatory activity in Wistar albino Rattus norvegicus (rat) assessed as inhibition of carrageenan-induced paw edema at 13 mg/kg, po administered 1 hr prior to carrageenan injection measured after 4 hr by mercury plethysmometer (reference value: 0%); assay type: functional
Rattus norvegicus [29] = test: Anti-inflammatory activity in Wistar albino Rattus norvegicus (rat) assessed as inhibition of carrageenan-induced paw edema at 13 mg/kg, po administered 1 hr prior to carrageenan injection measured after 3 hr by mercury plethysmometer (reference value: 0%); assay type: functional
Rattus norvegicus [30] = test: Anti-inflammatory activity in Wistar albino Rattus norvegicus (rat) assessed as inhibition of carrageenan-induced paw edema at 13 mg/kg, po administered 1 hr prior to carrageenan injection measured after 2 hr by mercury plethysmometer (reference value: 0%); assay type: functional
Rattus norvegicus [31] = test: Anti-inflammatory activity in Wistar albino Rattus norvegicus (rat) assessed as inhibition of carrageenan-induced paw edema at 13 mg/kg, po administered 1 hr prior to carrageenan injection measured after 1 hr by mercury plethysmometer (reference value: 0%); assay type: functional
Rattus norvegicus [32] = test: Anti-inflammatory activity in Wistar albino Rattus norvegicus (rat) assessed as inhibition of carrageenan-induced paw edema at 13 mg/kg, po administered 1 hr prior to carrageenan injection measured after 8 hr by mercury plethysmometer (reference value: 0%); assay type: functional
Rattus norvegicus [33] = test: Anti-inflammatory activity in Wistar albino Rattus norvegicus (rat) assessed as inhibition of carrageenan-induced paw edema at 13 mg/kg, po administered 1 hr prior to carrageenan injection measured after 6 hr by mercury plethysmometer (reference value: 0%); assay type: functional
Mus musculus [34] = test: Analgesic activity in Swiss Mus musculus (mouse) assessed as inhibition of acetic acid-induced abdominal writhing at 13 mg/kg, po administered 1 hr prior to acetic acid injection measured for 10 min; assay type: functional; conditions: Abdomen
Rattus norvegicus [35] = test: Gastrointestinal toxicity in Wistar albino Rattus norvegicus (rat) assessed as ulcerogenicity index at 13 mg/kg, po administered for 7 days measured on day 8 (reference value: 0 no unit); assay type: organism-based; parameters: dose 13 mg/kg, route oral; conditions: in vivo, 168 h

`Cc1cccc(Nc2ccccc2C(=O)NCC(=O)OCc2c(C(C)C)c(=O)n(-c3ccccc3)n2C)c1C` showed a half-life [1] of 8.98 h, a half-life [2] of 18.7 h and an inhibition in vivo at 27.65 mg/kg (Mus musculus [3]) of 63.9%. It also gave an inhibition in vivo at 27.65 mg/kg (Rattus norvegicus [4]) of 10%, an inhibition in vivo at 27.65 mg/kg (Rattus norvegicus [5]) of 38.5% and an inhibition in vivo at 27.65 mg/kg (Rattus norvegicus [6]) of 83.7%. It also gave an inhibition in vivo at 27.65 mg/kg (Rattus norvegicus [7]) of 85.7%, an inhibition in vivo at 27.65 mg/kg (Rattus norvegicus [8]) of 77.2% and an inhibition in vivo at 27.65 mg/kg (Rattus norvegicus [9]) of 23.3%. The Stability [10] was “Stable” and the UI (Rattus norvegicus [11]) was 1.
`Cc1cccc(Nc2ccccc2C(=O)OCc2c(C(C)C)c(=O)n(-c3ccccc3)n2C)c1C` showed a half-life [1] of 7.37 h, a half-life [2] of 16.2 h and an inhibition in vivo at 24.65 mg/kg (Rattus norvegicus [12]) of 13.3%. It also gave an inhibition in vivo at 24.65 mg/kg (Rattus norvegicus [13]) of 71.4%, an inhibition in vivo at 24.65 mg/kg (Rattus norvegicus [14]) of 59.1% and an inhibition in vivo at 24.65 mg/kg (Mus musculus [15]) of 81.7%. For the same compound, the inhibition in vivo at 24.65 mg/kg (Rattus norvegicus [16]) was 44%, the inhibition in vivo at 24.65 mg/kg (Rattus norvegicus [17]) was 62.9% and the inhibition in vivo at 24.65 mg/kg (Rattus norvegicus [18]) was 72.6%. For the same compound, the Stability [10] was “Stable” and the UI (Rattus norvegicus [19]) was 0.25.
Work on `CC(C)c1c(CO)n(C)n(-c2ccccc2)c1=O` [3-HYDROXYMETHYL PROPYPHENAZONE] yielded an inhibition in vivo at 23 mg/kg (Rattus norvegicus [20]) of 12%, an inhibition in vivo at 23 mg/kg (Rattus norvegicus [21]) of 23.7% and an inhibition in vivo at 23 mg/kg (Rattus norvegicus [22]) of 31.2%. For the same compound, the inhibition in vivo at 23 mg/kg (Rattus norvegicus [23]) was 40.2%, the inhibition in vivo at 23 mg/kg (Rattus norvegicus [24]) was 46.4% and the inhibition in vivo at 23 mg/kg (Rattus norvegicus [25]) was 31.5%. It also gave an inhibition in vivo at 23 mg/kg (Mus musculus [26]) of 78.3% and a UI (Rattus norvegicus [27]) of 1.25.
`Cc1cccc(Nc2ccccc2C(=O)O)c1C` [MEFENAMIC ACID] showed an inhibition in vivo at 13 mg/kg (Rattus norvegicus [28]) of 35.6%, an inhibition in vivo at 13 mg/kg (Rattus norvegicus [29]) of 53.1% and an inhibition in vivo at 13 mg/kg (Rattus norvegicus [30]) of 52.2%. For the same compound, the inhibition in vivo at 13 mg/kg (Rattus norvegicus [31]) was 38.4%, the inhibition in vivo at 13 mg/kg (Rattus norvegicus [32]) was 20% and the inhibition in vivo at 13 mg/kg (Rattus norvegicus [33]) was 24.3%. The inhibition in vivo at 13 mg/kg (Mus musculus [34]) was 61.1% and the UI (Rattus norvegicus [35]) was 3.17.
